Measured values: US20140057860A1, “PHARMACEUTICAL COMPOSITION FOR TREATING CARDIOVASCULAR AND CEREBROVASCULAR DISEASES AND METHOD OF MANUFACTURING THE SAME” (Macau University of Science and Technology, priority 2012, published 2014)
Read-outs that look alike come from different tables or passages of the source.

Assays:
[1] = molecular target: T1, human MRP2 (Homo sapiens, UniProt Q92887); test: MRP2 membrane vesicles transport assay with scutellarin as probe (Example 13); assay type: biochemical
T1 construct: purchased BD Biosciences; host or cells: insect Sf9 cells
Procedure: With some changes in BD protocol of MRP2 vesicles assay, a rapid filtration technique of multiscreen HTS vacuum manifold (Millipore) was used in the analysis. […] The mixture was incubated in the buffer (250 mM sucrose, 10 mM MgCl2, 10 mM Tris/HCl, pH 7.4) at 37° C. for […], followed by addition of 15 μl of 25 mM MgATP or blank buffer to each well started the test. The mixture was incubated for 4 min and stopped by transferring the membrane vesicles to a filter plate.

[2] = system: Caco-2 monolayers; assay type: in vitro ADME, human
Procedure: Caco-2 cells were seeded on 24-well Millicell insert filters with a density of about 1×10^5 cells/well. These cells were cultured for 21 days to reach confluence and differentiation. The integrity of Caco-2 cell monolayers was evaluated by monitoring trans-epithelial electrical resistance (TEER) on an epithelial volt ohmmeter (World Precision Instruments, Sarasota, Fla., USA). The impermeability (gate functions) of epithelial cell monolayers was measured by the fluorescein leakage test (FLT) that provided information on the effects of xenobiotics on the impermeability of epithelial cell monolayers. The differentiation was assessed using the alkaline phosphatase (ALP) assay at 562 nm
After the above measured parameters of the Caco-2 model became stable, transport study was performed from the apical (AP) to the basolateral (BL) side and from BL to AP at 37° C. Following 30 min of equilibration after the addition of 400 μl HBSS (pH 7.4) in AP side and 600 μl in BL side in an atmosphere of 5% CO2, the test solutions containing 100 μM scutellarin or each of 100 μg/ml of five surfactants Cremophor® EL, Cremophor® RH, Labrasol®, Pluronic® F68, and Pluronic® F127; each of 100 μg/ml of three oils Labrafac Lipophile® WL1349, Maisine® 35-1, and Capmul® MCM; each of 100 μg/ml of three co-surfactants Transcutol®, PEG 400, and PEG 2000; and each of 100 μg/ml of four solid carriers β-cyclodextrin, lactose, HPMC K4M®, HPMC K100®. The solutions were all dissolved in DMSO and HBSS and then added to the donor side. The sample of 100 μM scutellarin was used as the scutellarin standard group in comparing the excipients efflux effect. Permeability of scutellarin was measured at 37° C. from the AP to BL direction and BL to AP direction after incubating in 5% CO2 for respectively 30 min, 60 min, and 90 min. […] After 90 min of incubation, solutions from both AP and BL sides were collected. Then the separately collected samples from each well of AP and BL sides were diluted with equal amounts of methanol before they were injected into the LC-MS for quantification of scutellarin. At 30, 60, 90 min of incubation, TEER values were respectively detected before the samples were drawn from the tested wells.
In the Caco-2 permeation analysis, if the calculated efflux ratio of one excipient group was lower than scutellarin standard group, this excipient might possibly be indicated to have the inhibition effect on MRP2.

[3] = system: Caco-2 monolayers; assay type: in vitro ADME; conditions: human
[4] = human, Caco-2, 90 min, 100 μg/ml, pH 7.4

T1 sequence (Q92887 whole entry): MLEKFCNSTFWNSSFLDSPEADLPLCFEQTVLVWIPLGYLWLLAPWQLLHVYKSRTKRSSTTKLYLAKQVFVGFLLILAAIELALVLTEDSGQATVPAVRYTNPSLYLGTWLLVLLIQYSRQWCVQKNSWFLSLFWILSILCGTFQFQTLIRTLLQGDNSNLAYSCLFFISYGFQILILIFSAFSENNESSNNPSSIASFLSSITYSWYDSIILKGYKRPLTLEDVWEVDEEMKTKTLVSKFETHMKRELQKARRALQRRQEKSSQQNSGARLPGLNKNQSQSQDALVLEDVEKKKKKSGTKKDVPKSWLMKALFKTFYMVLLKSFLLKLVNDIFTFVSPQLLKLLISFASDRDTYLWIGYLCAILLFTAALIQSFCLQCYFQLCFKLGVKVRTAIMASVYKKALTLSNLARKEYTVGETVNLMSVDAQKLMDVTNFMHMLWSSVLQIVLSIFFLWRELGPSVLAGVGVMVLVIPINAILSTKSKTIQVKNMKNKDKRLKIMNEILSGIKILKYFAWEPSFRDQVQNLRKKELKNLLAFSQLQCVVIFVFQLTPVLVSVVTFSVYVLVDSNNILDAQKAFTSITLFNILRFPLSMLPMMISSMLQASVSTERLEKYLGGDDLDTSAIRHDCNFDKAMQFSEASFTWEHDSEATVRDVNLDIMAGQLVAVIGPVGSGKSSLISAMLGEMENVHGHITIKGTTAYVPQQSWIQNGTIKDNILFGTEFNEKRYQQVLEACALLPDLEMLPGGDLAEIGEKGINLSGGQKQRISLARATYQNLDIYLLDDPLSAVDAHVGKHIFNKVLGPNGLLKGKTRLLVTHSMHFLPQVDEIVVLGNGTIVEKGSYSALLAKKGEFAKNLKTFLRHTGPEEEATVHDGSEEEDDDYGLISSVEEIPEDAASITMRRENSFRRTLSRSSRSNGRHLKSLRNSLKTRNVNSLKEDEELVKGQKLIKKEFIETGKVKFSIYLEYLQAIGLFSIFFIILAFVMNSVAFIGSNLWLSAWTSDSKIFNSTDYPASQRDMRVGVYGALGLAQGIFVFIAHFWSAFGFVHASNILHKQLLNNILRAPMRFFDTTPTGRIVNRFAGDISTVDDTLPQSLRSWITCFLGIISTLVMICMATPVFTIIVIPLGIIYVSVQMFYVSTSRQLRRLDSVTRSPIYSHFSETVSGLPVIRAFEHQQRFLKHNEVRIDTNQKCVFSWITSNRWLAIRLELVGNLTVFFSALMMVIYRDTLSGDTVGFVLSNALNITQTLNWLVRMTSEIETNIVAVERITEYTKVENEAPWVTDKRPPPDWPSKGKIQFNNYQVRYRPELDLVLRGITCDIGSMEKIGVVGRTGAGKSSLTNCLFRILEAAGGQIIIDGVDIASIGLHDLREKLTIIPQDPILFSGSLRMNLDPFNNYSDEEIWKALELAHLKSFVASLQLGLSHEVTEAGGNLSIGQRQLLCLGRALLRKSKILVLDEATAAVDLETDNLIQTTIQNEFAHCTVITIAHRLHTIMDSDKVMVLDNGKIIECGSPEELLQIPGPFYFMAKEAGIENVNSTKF

Row | Compound | PappAB ([2]; Caco-2) | PappBA ([2]; Caco-2) | further results
1 | CCOCCOCCO [Transcutol ®, diethylene glycol monoethylether] |  |  | sequence of inhibition effects on MRP2 ([1]; within excipient group, p<0.05): PEG 2000>PEG 400>Transcutol®; PappAB [2, 4]: 2.69 ± 0.35 10^−6 cm · s^−1; PappBA [2, 4]: 5.99 ± 0.52 10^−6 cm · s^−1
2 | polyethylene glycol [PEG 2000] | 9.91 ± 0.35 10^−6 cm · s^−1 | 12.91 ± 1.60 10^−6 cm · s^−1 | 
3 | OC[C@H]1O[C@@H](O[C@H]2[C@H](O)[C@@H](O)C(O)O[C@@H]2CO)[C@H](O)[C@@H](O)[C@H]1O (stereo partly shown) [lactose] |  |  | PappAB [2, 4]: 1.44 ± 0.24 10^−6 cm · s^−1; PappBA [2, 4]: 7.90 ± 0.43 10^−6 cm · s^−1
4 | OC[C@H]1O[C@@H]2O[C@H]3[C@H](O)[C@@H](O)[C@@H](O[C@H]4[C@H](O)[C@@H](O)[C@@H](O[C@H]5[C@H](O)[C@@H](O)[C@@H](O[C@H]6[C@H](O)[C@@H](O)[C@@H](O[C@H]7[C@H](O)[C@@H](O)[C@@H](O[C@H]8[C@H](O)[C@@H](O)[C@@H](O[C@H]1[C@H](O)[C@H]2O)O[C@@H]8CO)O[C@@H]7CO)O[C@@H]6CO)O[C@@H]5CO)O[C@@H]4CO)O[C@@H]3CO [β-cyclodextrin] | 4.04 ± 0.33 10^−6 cm · s^−1 | 9.33 ± 0.36 10^−6 cm · s^−1 | scutellarin concentrations measured compared with scutellarin standard group (FIG. 2) ([1]; higher than standard means MRP2 inhibition): lower quantities of scutellarin than that of the standard group
5 | polyethylene glycol [PEG 400] | 1.46 ± 0.08 10^−6 cm · s^−1 | 1.96 ± 0.05 10^−6 cm · s^−1 | 
6 | Pluronic ® F68 | 2.03 ± 0.35 10^−6 cm · s^−1 | 4.38 ± 0.13 10^−6 cm · s^−1 | Efflux reduction sequence ([2]; Caco-2): Cremophor® RH>Pluronic® F68>Labrasol®>Pluronic® F127
7 | O=C(O)[C@H]1O[C@@H](Oc2cc3oc(-c4ccc(O)cc4)cc(=O)c3c(O)c2O)[C@H](O)[C@@H](O)[C@@H]1O [Scutellarin, 4,5,6-trihydroxyflavone-7-glucuronide] |  |  | identification as MRP2 substrate with MRP2 inhibitor MK571 [3]: identified as the substrate for MRP2
8 | Pluronic ® F127 | 1.84 ± 0.09 10^−6 cm · s^−1 | 5.31 ± 0.49 10^−6 cm · s^−1 | Efflux reduction sequence ([2]; Caco-2): Cremophor® RH>Pluronic® F68>Labrasol®>Pluronic® F127
